Measurements from patent publication US11208391B2, “Polymorphs and new path to synthesize Tafamidis” (AZAD PHARMA AG, priority 2018, dated 2021).

Test: Pressure resistance of the crystalline form (hydraulic press, then PXRD/DSC)
Format: physicochemical
Conditions: pressed 3-5 seconds at 1.5 MPa, Perkin Elmer hydraulic press, 13 mm stamp, material of method 1 (pentane/heptane), compared with non-pressed form
Protocol: The diffraction measurements were performed at ambient conditions on a PANalytical X'Pert PRO θ-θ diffractometer of 240 mm of radius in reflection geometry, equipped with Cu Kα radiation and a PIXcel detector, operated at 45 kV and 40 mA. Each sample was mounted on a zero-background silicon holder and allowed to spin at 0.25 rev/s during data collection. The measurement angular range was 3.0-40.0° (2θ) with a step size of 0.013°. The scanning speed was 0.0821°/s (40.80 s/step).
Dry samples were pressed at the indicated pressures in a Perkin Elmer hydraulic press using a 13 mm stamp for a time period of 3-5 seconds.
The dried filter cake obtained by the above described method 1 was pressed for 3-5 seconds at 1.5 MPa using a Perkin Elmer hydraulic press and 13 mm tableting stamp. The resulting material was subjected to a DSC and a PXRD-experiment. The results are depicted in FIG. 13 (DSC) and FIG. 14 (PXRD). […] This feature renders this polymorph suitable for processing in the course of tableting, especially.

CNC[C@H](O)[C@@H](O)[C@H](O)[C@H](O)CO.O=C(O)c1ccc2nc(-c3cc(Cl)cc(Cl)c3)oc2c1 [crystalline Tafamidis meglumine, 2-(3,5-dichlorophenyl)-1,3-benzoxazole-6-carboxylic acid * (2R,3R,4R,5S)-6-(methyl-amino)-hexane-1,2,3,4,5-pentol]
PXRD diffraction pattern / structure of the crystalline form upon pressure treatment: does not change upon pressure treatment | PXRD diffraction pattern / structure of the crystalline form upon pressure treatment (listed as crystalline form): insensitive to pressure
